A compilation of properties of binary mixtures (doi:10.1016/j.molliq.2022.119758)

Test: xn = mol fraction of the nth substance listed
Conditions: 101 kPa

CCC[N+]1(C)CCCC1.O=S(=O)([N-]S(=O)(=O)C(F)(F)F)C(F)(F)F + O=C1CCCO1
viscosity [mPa·s]
Conditions | 278.15 K | 288.15 K | 298.15 K | 308.15 K | 318.15 K | 328.15 K | 338.15 K | 348.15 K | 358.15 K
x1 = 0.0657 | – | 3.14 | 2.65 | 2.296 | 1.951 | 1.694 | – | 1.328 | 1.191
x1 = 0.1741 | 6.97 | – | 4.45 | 3.67 | 3.08 | – | – | – | –
x1 = 0.3874 | 16.24 | 11.87 | 9.04 | 7.09 | 5.71 | 4.7 | 3.95 | 3.37 | 2.92
x1 = 1 | – | 96.2 | 60.6 | 40.8 | 28.9 | 21.3 | 16.29 | 12.82 | –

O=C1CCCO1 + CCC[N+]1(C)CCCC1.O=S(=O)([N-]S(=O)(=O)C(F)(F)F)C(F)(F)F
x2 = 0
Conditions | viscosity [mPa·s]
278.15 K | 2.56
298.15 K | 1.859
308.15 K | 1.641
328.15 K | 1.242
338.15 K | 1.106
358.15 K | 0.894
